According to patent US10065990B2, “Cyclic peptide compound, and preparation method, pharmaceutical composition and use thereof” (HANGZHOU GUANYU BIO-MEDICAL CO., LTD, priority 2013, dated 2018):
Like-named read-outs stand apart in the source and are kept apart here.

Columns and labels:
[1] = system: MOLT-4 (human acute lymphoblastic leukemia cells); test: MTT cancer cell growth inhibition; format: cell-based; conditions: Homo sapiens, MOLT-4, 72 h, MTT
Method in brief: (§1)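 Seed 1500 cells/well, incubate overnight. Add compound, 10^−5 to 10^−10 M final, n=3; culture 72 h, 37° C., 5% CO2. Add MTT, 4 h. Discard supernatant, dissolve in DMSO. Read 570 nm; calculate viability and GI50.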

[2] = system: Hela (human cervical cancer cells); test: MTT cancer cell growth inhibition; format: cell-based; conditions: Homo sapiens, HeLa, 72 h, MTT
Method in brief: as §1

[3] = system: SGC-7901 (human gastric cancer cells); test: MTT cancer cell growth inhibition; format: cell-based; conditions: Homo sapiens, SGC-7901, 72 h, MTT, 72 hours incubation, SGC-7901 cells; read-out: GI50 SGC-7901
Method in brief: as §1

[4] = system: PANC-1 (Pac-1, human pancreatic cancer cells); test: MTT cancer cell growth inhibition; format: cell-based; conditions: Homo sapiens, PANC-1, 72 h, MTT
Method in brief: as §1

[5] = system: H1975 (non-small cell lung adenocarcinoma); test: MTT cancer cell growth inhibition; format: cell-based; conditions: Homo sapiens, NCI-H1975, 72 h, MTT, 72 hours incubation, H1975 cells; read-out: GI50 H1975
Method in brief: as §1

[6] = system: BGC-823 (human gastric cancer cells); test: MTT cancer cell growth inhibition; format: cell-based; conditions: Homo sapiens, BGC-823, 72 h, MTT
Method in brief: as §1

[7] = system: K562 (human leukemia cells); test: MTT cancer cell growth inhibition; format: cell-based; conditions: Homo sapiens, K562, 72 h, MTT, 72 hours incubation, K562 cells; read-out: GI50 K562
Method in brief: as §1

[8] = system: HT1080 (human fibrosarcoma cells); test: MTT cancer cell growth inhibition; format: cell-based; conditions: Homo sapiens, HT-1080, 72 h, MTT
Method in brief: as §1

[9] = system: MCF-7 (human breast cancer cells); test: MTT cancer cell growth inhibition; format: cell-based; conditions: Homo sapiens, MCF7, 72 h
Method in brief: as §1

[10] = system: A549 (human lung cancer cells); test: MTT cancer cell growth inhibition; format: cell-based; conditions: Homo sapiens, A549, 72 h, MTT
Method in brief: as §1

[11] = system: Bel-7402 (human hepatoma cells); test: MTT cancer cell growth inhibition; format: cell-based; conditions: Homo sapiens, Bel-7402, 72 h, MTT, 72 hours incubation, Bel-7402 cells; read-out: GI50 Bel-7402
Method in brief: as §1

[12] = system: Huh-7 (human hepatoma cells); test: MTT cancer cell growth inhibition; format: cell-based; conditions: Homo sapiens, Huh-7, 72 h, MTT, 72 hours incubation, Huh-7 cells; read-out: GI50 Huh-7
Method in brief: as §1

[13] = system: U937 (human leukemia cells); test: MTT cancer cell growth inhibition; format: cell-based; conditions: Homo sapiens, U-937, 72 h, MTT
Method in brief: as §1

[14] = system: KBM5-T315I (human chronic myelogenous leukemia); test: MTT cancer cell growth inhibition; format: cell-based; conditions: Homo sapiens, 72 h, MTT, 72 hours incubation, KBM5-T315I cells; read-out: GI50 KBM5-T315I
Method in brief: as §1

[15] = system: N-87 (human gastric cancer cells); test: MTT cancer cell growth inhibition; format: cell-based; conditions: Homo sapiens, 72 h, MTT, 72 hours incubation, N-87 cells; read-out: GI50 N-87
Method in brief: as §1

[16] = system: MDA-MB-231 (breast cancer cells); test: MTT cancer cell growth inhibition; format: cell-based; conditions: Homo sapiens, MDA-MB-231, 72 h, read-out: GI50 MDA-MB-231, MTT, 72 hours incubation, MDA-MB-231 cells
Method in brief: as §1

[17] = system: KBM-5 (human chronic myelogenous leukemia); test: MTT cancer cell growth inhibition; format: cell-based; conditions: Homo sapiens, KBM5, 72 h, MTT, 72 hours incubation, KBM-5 cells; read-out: GI50 KBM-5
Method in brief: as §1

[18] = system: DU145 (human prostate cancer cells); test: MTT cancer cell growth inhibition; format: cell-based; conditions: Homo sapiens, DU-145, 72 h, MTT
Method in brief: as §1

[19] = system: HCC827 (human non-small cell lung cancer cells); test: MTT cancer cell growth inhibition; format: cell-based; conditions: Homo sapiens, HCC827, 72 h, MTT, 72 hours incubation, HCC827 cells; read-out: GI50 HCC827
Method in brief: as §1

[20] = system: lncap (prostate cancer cells); test: MTT cancer cell growth inhibition; format: cell-based; conditions: Homo sapiens, LNCaP, 72 h, MTT
Method in brief: as §1

[21] = target: HDAC2 (Homo sapiens, UniProt Q92769); test: HDAC biochemical activity measurement (fluorescent substrate deacetylation);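 note: HDAC2 enzyme with an acetyl-lysine fluorescent substrate, then developer added, fluorescence read at excitation 360 nm and emission 460 nm, inhibition measured across several compound concentrations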; conditions: 37° C. 30 minutes
[22] = MOLT-4 cells, 72 hours incubation, read-out: GI50 Mol
[23] = 72 hours, present invention, read-out: GI50 Molt-4, a
[24] = Hela cells, 72 hours incubation, read-out: GI50 Hela
[25] = 72 hours, present invention, read-out: GI50 Hela, a
[26] = 72 hours, present invention, read-out: GI50 PANC-1, a
[27] = PANC-1 cells, 72 hours incubation, read-out: GI50 PAN
[28] = BGC-823 cells, 72 hours incubation, read-out: GI50 BG
[29] = 72 hours, present invention, read-out: GI50 BGC823, a
[30] = HT1080 cells, 72 hours incubation, read-out: GI50 HT1
[31] = 72 hours, present invention, read-out: GI50 HT1080, a
[32] = 72 hours, present invention, read-out: GI50 MCF7, a
[33] = MCF-7 cells, 72 hours incubation, read-out: GI50 MCF
[34] = A549 cells, 72 hours incubation, read-out: GI50 A54
[35] = 72 hours, present invention, read-out: GI50 A549, a
[36] = 72 hours, present invention, read-out: GI50 U937, a
[37] = U937 cells, 72 hours incubation, read-out: GI50 U93
[38] = DU145 cells, 72 hours incubation, read-out: GI50 Du1
[39] = 72 hours, present invention, read-out: GI50 Du145, a
[40] = 72 hours, present invention, read-out: GI50 lncap, a
[41] = lncap cells, 72 hours incubation, read-out: GI50 lnca
[42] = 72 hours incubation, read-out: GI50 Mol
[43] = 72 hours incubation, read-out: GI50 Hela
[44] = 72 hours incubation, read-out: GI50 PAN
[45] = 72 hours incubation, read-out: GI50 BG
[46] = 72 hours incubation, read-out: GI50 HT1
[47] = 72 hours incubation, read-out: GI50 MCF
[48] = 72 hours incubation, read-out: GI50 A54
[49] = 72 hours incubation, read-out: GI50 U93
[50] = 72 hours incubation, read-out: GI50 Du1
[51] = 72 hours incubation, read-out: GI50 lnca

Sequence of HDAC2 (Q92769 whole entry, species assumed): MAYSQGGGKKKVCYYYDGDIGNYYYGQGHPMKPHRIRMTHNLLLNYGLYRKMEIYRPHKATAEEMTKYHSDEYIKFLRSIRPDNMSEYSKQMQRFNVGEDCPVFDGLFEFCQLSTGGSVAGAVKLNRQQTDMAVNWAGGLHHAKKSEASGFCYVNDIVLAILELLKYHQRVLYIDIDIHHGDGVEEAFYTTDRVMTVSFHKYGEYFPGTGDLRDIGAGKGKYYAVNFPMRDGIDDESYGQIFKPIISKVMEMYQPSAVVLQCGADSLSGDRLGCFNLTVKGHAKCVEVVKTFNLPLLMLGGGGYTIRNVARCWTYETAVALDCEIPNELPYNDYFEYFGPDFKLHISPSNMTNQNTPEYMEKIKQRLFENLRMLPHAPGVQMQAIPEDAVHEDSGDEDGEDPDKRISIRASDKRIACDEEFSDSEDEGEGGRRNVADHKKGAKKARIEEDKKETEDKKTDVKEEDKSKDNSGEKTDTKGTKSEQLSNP

Structure (SMILES)	GI50 [1, 22] [nM]	GI50 [1, 23] [nM]	GI50 [2, 24] [nM]	GI50 [2, 25] [nM]	GI50 [3] [nM]	GI50 [4, 26] [nM]	GI50 [4, 27] [nM]	GI50 [5] [nM]	GI50 [6, 28] [nM]	GI50 [6, 29] [nM]	GI50 [7] [nM]	GI50 [8, 30] [nM]	GI50 [11] [nM]	GI50 [12] [nM]	GI50 [14] [nM]	GI50 [15] [nM]	GI50 [16] [nM]	GI50 [17] [nM]	GI50 [19] [nM]	IC50 [21] [nM]	further results
CCCCCCCC(=O)SCC/C=C/[C@@H]1CC(=O)NCc2cccc(n2)C(=O)NC(CC)C(=O)N[C@@H](C(C)C)C(=O)O1 (some centres unmarked) [Compound 245]	350	350	530	530	63	140	140	28	770	770	83	650	87	31	12	53	65	11	96	74	GI50 [8, 31]: 650 nM; GI50 [9, 32]: 41 nM; GI50 [9, 33]: 40 nM; GI50 [10, 34]: 110 nM; GI50 [10, 35]: 110 nM; GI50 [13, 36]: 840 nM; GI50 [13, 37]: 840 nM; GI50 [18, 38]: 130 nM; GI50 [18, 39]: 130 nM; GI50 [20, 40]: 860 nM; GI50 [20, 41]: 860 nM
C/C=C1\NC(=O)c2nc(ccc2F)CNC(=O)C[C@@H](/C=C/CCSC(=O)CCCCC)OC(=O)[C@H](C(C)C)NC1=O [Compound 36]	–	–	–	–	47	–	–	19	–	–	29	–	62	43	57	39	43	61	62	43	GI50 [1, 42]: 40 nM; GI50 [2, 43]: 60 nM; GI50 [4, 44]: 60 nM; GI50 [6, 45]: 30 nM; GI50 [8, 46]: 60 nM; GI50 [9, 47]: 50 nM; GI50 [10, 48]: 40 nM; GI50 [13, 49]: 20 nM; GI50 [18, 50]: 20 nM; GI50 [20, 51]: 40 nM
C/C=C1\NC(=O)c2nc(ccc2F)CNC(=O)C[C@@H](/C=C/CCSC(=O)CCCCCCC)OC(=O)[C@H](CC)NC1=O [Example 54]	–	–	–	–	64	–	–	43	–	–	29	–	51	34	63	49	34	99	51	24	GI50 [1, 42]: 30 nM; GI50 [2, 43]: 90 nM; GI50 [4, 44]: 50 nM; GI50 [6, 45]: 40 nM; GI50 [8, 46]: 50 nM; GI50 [9, 47]: 60 nM; GI50 [10, 48]: 60 nM; GI50 [13, 49]: 40 nM; GI50 [18, 50]: 20 nM; GI50 [20, 51]: 30 nM
C/C=C1\NC(=O)c2cccc(n2)CNC(=O)C[C@@H](/C=C/CCSC(=O)CCCCCCC)OC(=O)[C@@H](C)NC1=O [Compound 236]	860	860	810	810	48	210	210	72	90	93	73	190	75	67	53	26	17	33	26	38	GI50 [8, 31]: 197 nM; GI50 [9, 32]: 760 nM; GI50 [9, 33]: 760 nM; GI50 [10, 34]: 510 nM; GI50 [10, 35]: 510 nM; GI50 [13, 36]: 77 nM; GI50 [13, 37]: 70 nM; GI50 [18, 38]: 90 nM; GI50 [18, 39]: 91 nM; GI50 [20, 40]: 530 nM; GI50 [20, 41]: 50 nM
